Data as given in ChEMBL document CHEMBL3792309, “Seeking potent anti-tubercular agents: Design, synthesis, anti-tubercular activity and docking study of various ((triazoles/indole)-piperazin-1-yl/1,4-diazepan-1-yl)benzo[d]isoxazole derivatives” (Bioorg Med Chem Lett, 2016).
Converted amounts (≈) assume the structure as drawn.

Tests used:
[1] = tested on: Mycobacterium tuberculosis; experiment: Antimicrobial activity against p-aminosalicylic acid/isonicotinic acid hydrazide/etambutol/rifampicin sensitive Mycobacterium tuberculosis Spec. 192 by classical test tube method; type: functional
[2] = Selectivity index, ratio of IC50 for mouse RAW264.7 cells to MIC for Mycobacterium tuberculosis H37Rv; type: toxicity; details: read-out: Selectivity Index
[3] = tested on: Mycobacterium tuberculosis; experiment: Antimicrobial activity against Mycobacterium tuberculosis H37Rv by classical test tube method; type: functional
[4] = Cytotoxicity against mouse RAW264.7 cells assessed as inhibition of cell viability at 96.13 uM after 72 hrs by CellTiter 96 non radioactive cell proliferation assay; type: cell-based
[5] = tested on: RAW264.7; experiment: Cytotoxicity against mouse RAW264.7 cells assessed as inhibition of cell viability after 72 hrs by CellTiter 96 non radioactive cell proliferation assay; type: cell-based; details: RAW264.7, 72 h
[6] = Cytotoxicity against mouse RAW264.7 cells assessed as inhibition of cell viability at 116.78 uM after 72 hrs by CellTiter 96 non radioactive cell proliferation assay; type: cell-based
[7] = Cytotoxicity against mouse RAW264.7 cells assessed as inhibition of cell viability at 98.8 uM after 72 hrs by CellTiter 96 non radioactive cell proliferation assay; type: cell-based
[8] = Cytotoxicity against mouse RAW264.7 cells assessed as inhibition of cell viability at 113.07 uM after 72 hrs by CellTiter 96 non radioactive cell proliferation assay; type: cell-based
[9] = tested on: Mycobacterium tuberculosis; experiment: Antimicrobial activity against Mycobacterium tuberculosis H37Rv assessed as growth inhibition at 257.59 uM by classical test tube method; type: functional; details: read-out: GI

SMILES	MIC [1] [µM]	MIC [3] [µM]	other results
FC(F)(F)c1cc(-n2cc(CN3CCCN(c4noc5ccccc45)CC3)nn2)ccc1Br	24 (≈ 12.5 µg/mL)	24 (≈ 12.5 µg/mL)	selectivity ratio [2]: 7.54; inhibition at 72 h, 96.13 µM [4]: 26.5%; IC50 [5]: 181 µM
O=C(CCCc1c[nH]c2ccccc12)N1CCCN(c2noc3ccccc23)CC1	> 200	> 200	
O=C(Cc1c[nH]c2ccccc12)N1CCN(c2noc3ccccc23)CC1	> 200	> 200	
COc1cccc(-n2cc(CN3CCCN(c4noc5ccccc45)CC3)nn2)c1	> 200	> 200	
O=[N+]([O-])c1ccc(-n2cc(CN3CCN(c4noc5ccccc45)CC3)nn2)cc1	> 200	> 200	
COc1cccc(-n2cc(CN3CCN(c4noc5ccccc45)CC3)nn2)c1	128 (≈ 50 µg/mL)	128 (≈ 50 µg/mL)	
C#CCN1CCCN(c2noc3ccccc23)CC1	196 (≈ 50 µg/mL)	196 (≈ 50 µg/mL)	
Brc1ccc(-n2cc(CN3CCN(c4noc5ccccc45)CC3)nn2)cc1	> 200	> 200	
C#CCN1CCN(c2noc3ccccc23)CC1	> 200	> 200	
FC(F)(F)c1cccc(-n2cc(CN3CCN(c4noc5ccccc45)CC3)nn2)c1	29.2 (≈ 12.5 µg/mL)	29.2 (≈ 12.5 µg/mL)	inhibition at 72 h, 116.78 µM [6]: 19.2%; selectivity ratio [2]: 10.4; IC50 [5]: 305 µM
O=C(Cc1c[nH]c2ccccc12)N1CCCN(c2noc3ccccc23)CC1	134 (≈ 50 µg/mL)	134 (≈ 50 µg/mL)	
Clc1ccc(-n2cc(CN3CCN(c4noc5cc(Cl)ccc45)CC3)nn2)cc1	> 200	> 200	
O=C(CCCc1c[nH]c2ccccc12)N1CCN(c2noc3cc(Cl)ccc23)CC1	> 200	> 200	
O=C(CCCc1c[nH]c2ccccc12)N1CCN(c2noc3ccccc23)CC1	> 200	> 200	
COc1ccc(-n2cc(CN3CCCN(c4noc5ccccc45)CC3)nn2)cc1	> 200	> 200	
O=C(CCc1c[nH]c2ccccc12)N1CCCN(c2noc3ccccc23)CC1	> 200	> 200	
CCc1ccc(-n2cc(CN3CCCN(c4noc5ccccc45)CC3)nn2)cc1	> 200	> 200	
Fc1ccc(-n2cc(CN3CCN(c4noc5ccccc45)CC3)nn2)cc1	132 (≈ 50 µg/mL)	132 (≈ 50 µg/mL)	
Clc1ccc2c(N3CCN(Cc4cn(-c5ccc(Br)cc5)nn4)CC3)noc2c1	> 200	> 200	
Brc1ccc(-n2cc(CN3CCCN(c4noc5ccccc45)CC3)nn2)cc1	> 200	> 200	

SMILES	MIC [1] [µM]	MIC [3] [µM]	other results
FC(F)(F)c1cc(-n2cc(CN3CCN(c4noc5ccccc45)CC3)nn2)ccc1Br	6.16 (≈ 3.13 µg/mL)	6.16 (≈ 3.13 µg/mL)	inhibition at 72 h, 98.8 µM [7]: 22.2%; selectivity ratio [2]: 36.1; IC50 [5]: 223 µM
O=C(Cc1c[nH]c2ccccc12)N1CCN(c2noc3cc(Cl)ccc23)CC1	127 (≈ 50.1 µg/mL)	127 (≈ 50.1 µg/mL)	
COc1ccc(-n2cc(CN3CCN(c4noc5ccccc45)CC3)nn2)cc1	> 200	> 200	
Clc1ccc(-n2cc(CN3CCCN(c4noc5ccccc45)CC3)nn2)cc1	> 200	> 200	
O=[N+]([O-])c1ccc(-n2cc(CN3CCCN(c4noc5ccccc45)CC3)nn2)cc1	> 200	> 200	
FC(F)(F)c1cccc(-n2cc(CN3CCCN(c4noc5ccccc45)CC3)nn2)c1	28.3 (≈ 12.5 µg/mL)	28.3 (≈ 12.5 µg/mL)	inhibition at 72 h, 113.07 µM [8]: 31.8%; selectivity ratio [2]: 6.29; IC50 [5]: 178 µM
O=[N+]([O-])c1ccc(-n2cc(CN3CCN(c4noc5cc(Cl)ccc45)CC3)nn2)cc1	> 200	> 200	
Clc1cccc(-n2cc(CN3CCCN(c4noc5ccccc45)CC3)nn2)c1	122 (≈ 50.1 µg/mL)	122 (≈ 50.1 µg/mL)	
CCc1ccc(-n2cc(CN3CCN(c4noc5cc(Cl)ccc45)CC3)nn2)cc1	> 200	> 200	
Clc1cccc(-n2cc(CN3CCN(c4noc5ccccc45)CC3)nn2)c1	63.4 (≈ 25 µg/mL)	63.4 (≈ 25 µg/mL)	
COc1ccc(-n2cc(CN3CCN(c4noc5cc(Cl)ccc45)CC3)nn2)cc1	118 (≈ 50.1 µg/mL)	118 (≈ 50.1 µg/mL)	
O=C(CCc1c[nH]c2ccccc12)N1CCN(c2noc3cc(Cl)ccc23)CC1	> 200	> 200	
O=C(CCc1c[nH]c2ccccc12)N1CCN(c2noc3ccccc23)CC1	> 200	> 200	
Clc1ccc(-n2cc(CN3CCN(c4noc5ccccc45)CC3)nn2)cc1	> 200	> 200	
CCc1ccc(-n2cc(CN3CCN(c4noc5ccccc45)CC3)nn2)cc1	> 200	> 200	inhibition of growth at 257.59 µM [9]: 99%
Fc1ccc(-n2cc(CN3CCCN(c4noc5ccccc45)CC3)nn2)cc1	127 (≈ 50 µg/mL)	127 (≈ 50 µg/mL)	
Fc1ccc(-n2cc(CN3CCN(c4noc5cc(Cl)ccc45)CC3)nn2)cc1	121 (≈ 50.1 µg/mL)	121 (≈ 50.1 µg/mL)	
C#CCN1CCN(c2noc3cc(Cl)ccc23)CC1	182 (≈ 50.1 µg/mL)	182 (≈ 50.1 µg/mL)	
NNC(=O)c1ccncc1 [ISONIAZID]	91.1 (≈ 12.5 µg/mL)	91.1 (≈ 12.5 µg/mL)	
